Test results from US7884136B2, “Modified-release formulations of a bupropion salt” (Biovail Laboratories International S.R.L., priority 2005, dated 2011).
Where two headings read alike, the source gives them in different places. Marks after values point to notes of the source that are not given here.

How the values were obtained:
[1] = Thermal analysis by TGA of bupropion salts; type: physicochemical; settings: for TGA: weight lost between room temperature and 100° C.: room temperature to 100° C.
Description: 2-5 mg of each salt was placed in an aluminium pan and covered with its lid. DSC was run for each sample at the rate of 10° C./min (for HBr salt, different rates were used to investigate for polymorphs) from 30° C. to 400° C. TGA was also used for each of the HBr, HCl, maleate and tosylate salts.
(§1) The salts were analysed by DSC (at 10° C./min from 30° C. up to 400° C.) and the pH (aq. 0.5%), and the moisture content by KF were also measured. The TGA was performed on the HCl, maleate, tosylate and HBr salts.

[2] = Moisture content of bupropion salts by KF; type: physicochemical; settings: for KF (moisture content), Original (Initial APIs): original API salts
Description: (§2) The eight salts were first evaluated by HPLC, KF, pH and DSC for purity, water content, aqueous pH and possible polymorphs.
as §1

[3] = pH of 0.5% aqueous solution of bupropion salts; type: physicochemical; settings: for pH (aq. 0.5%), Original (Initial APIs): original API salts
Description: as §2, §1

[4] = Forced degradation stability study of bupropion salts spiked with placebo/excipients, closed vials, 40° C./75% RH, HPLC assay and impurities
Description: The stability of the salts was evaluated based on the formation of the main degradation products (see below) as determined by HPLC analysis and the % potency (or assay) of the API, after specific time periods in the stability chamber. The effect of the addition of solvents, such as water, ethanol and isopropyl alcohol, was also studied.
The samples of each salt and the spiked salts with the bupropion HCl XL were prepared under the conditions mentioned in Table 4. […] The stability of the bupropion salts were evaluated based on the formation of the main degradation product 3-chlorobenzoic acid (3-CBZ) and the intermediate degradation products diketone 827U76 and the ketohydroxyl derivatives (20U78 and 852U77) (Scheme 2).
As mentioned above, the stability samples were prepared in 2 mL vials and used directly for assay and impurity analysis by HPLC without further sample preparations to minimize errors.

[5] = TGA experiment at 100° C., loss of API salt over time; type: physicochemical; settings: TGA at 100° C.
Description: The average weight of the excipients and the weight of the active pharmaceutical ingredient (API) present in the samples are presented in Table 72. […] FIG. 53 is a graph showing the loss of each salt over time in a TGA experiment at 100° C.

[6] = Release of bupropion base from bupropion HCl and HBr; type: physicochemical; settings: 150 mg of the salt tested
Description: It was previously observed that when 150 mg of bupropion HCl was tested for its release of bupropion, the base value that was released was 130 mg.

[7] = Solubility of Bupropion HBr vs Bupropion HCl in water, EtOH, IPA; type: physicochemical
[8] = Comparative forced degradation of bupropion HCl and HBr API salts, closed glass bottle, 40° C./75% RH, HPLC; type: physicochemical; settings: closed glass bottle
Description: Further stability tests were performed by directly comparing bupropion HBr and bupropion HCl salts in forced degradation studies. […] At specified times, the material in the bottles was analyzed for the presence of degradation products and % potency (% assay).
The samples were exposed to the above conditions in a closed bottle for few days, and then subjected to HPLC analysis. The amount of the main degradation products present after treatment were compared with those amounts that were present initially.
The samples were analysed after 14 and 24 days (study-1) and 10 days (study II), in a quantitative manner by direct treatment of the whole content of the bottle as per the HPLC standard test method (P05.901.10).

[9] = Stability of bupropion HBr polymorphic forms I, II and III by PXRD under ICH conditions; type: physicochemical; settings: for Stability of the polymorphic form (words): ICH conditions 40° C., 75% R.H.; for Stability of the polymorphic form (words) / PXRD profile / crystalline form after storage (words): hydrobromide; for PXRD profile / crystalline form after storage (words): ICH conditions 40° C./75% r.h., 1 month
Description: It is well known that organic molecules can crystallize into solid forms. Moreover the same organic compound may assume different crystalline arrangements in solid form, depending on the conditions under which the crystal product is formed. This phenomenon is commonly known as polymorphism. […] The crystal forms of the products obtained in this study were determined by powder X-ray diffraction (PXRD). A RIGAKU miniflex instrument (Radiation Cu K∝, generator 30 KV, filter Ni) was used to obtain the PXRD data.
The three polymorphic forms were subjected to stability testing. […] Samples of the polymorphic forms II and III were tested after 1 month under the same accelerated stability conditions.
Samples of bupropion HBr form I were subjected to the conditions for the accelerated stability study as described in Example 10 and the shelf life stability study as described in Example 11.
10 g of bupropion HBr form I were dissolved in a mixture of 170 ml of acetone and 7 ml of water. The mixture was brought to reflux with dissolution of the solid. The solution was then cooled to room temperature. After one night the precipitate formed was filtered and dried at 40° C. under vacuum (30 mmHg) for 12 hours. […] The crystalline form was checked after maintaining the product under these conditions for 1 month.
The mixture was brought to reflux obtaining complete dissolution of the solid. The solution was then cooled to room temperature without stirring and left in these conditions for 18 hours. The resulting crystalline solid was then filtered and dried under vacuum (30 mmHg) at 50° C. for 4 hours. […] The crystalline form was checked after maintaining the product in these conditions for 1 month.

[10] = In IPA/EtOH, 32 days, closed vials
[11] = In water, 32 days, closed vials
[12] = repeat study, 40 C/75% RH, 10 Days, Lot# STN06973, hydrochloride
[13] = repeat study, 40 C/75% RH, 10 Days, Lot# STN06978, hydrochloride
[14] = repeat study, 40 C/75% RH, Initial, Lot# STN06973, hydrochloride
[15] = repeat study, 40 C/75% RH, Initial, Lot# STN06978, hydrochloride

Bupropion maleate
TGA: residue at 400° C. [1]: minimal residues | TGA: thermally stable to at least ([1]; TGA): at least 150 °C | TGA: weight lost between room temperature and 100° C. [1]: 1.3% | KF (moisture content), Original (Initial APIs) [2]: 0.10% | pH (aq. 0.5%), Original (Initial APIs) ([3]; 0.5% aqueous solution): 4.29 | Content of impurity 3-CBZ, order of salts [4, 10]: maleate > HBr > HCl > Fumarate | Content of impurity 852U77, order of salts [4, 10]: fumarate > HBr ≈ HCl ≈ maleate ≈ tosylate | Total imp., order of salts [4, 10]: fumarate > maleate > HBr > HCl > tosylate | Content of impurity 3-CBZ, order of salts [4, 11]: HCl > HBr ≈ maleate ≈ fumarate | Content of impurity 852U77, order of salts [4, 11]: fumarate > HBr > maleate > HCl | Total imp., order of salts [4, 11]: fumarate > HBr > HCl > tosylate > maleate

CC(NC(C)(C)C)C(=O)c1cccc(Cl)c1.Cl (racemic) [Bupropion HCl, (±)-1-(3-chlorophenyl)-2-[(1,1-dimethylethyl)amino]-1-propanone hydrochloride, reference compound]
Disproportionation of the salt at elevated temperature [5]: disproportionation of the HCl salt occurs with concomitant loss of gaseous HCl | Base value of bupropion released [6]: 130 mg | TGA: residue at 400° C. [1]: minimal residues | Moisture Content (KF) ([2]; Table 3, supplier API): 0.01% | KF (moisture content), Original (Initial APIs) [2]: 0.0% | pH (aq. 0.5%), Original (Initial APIs) ([3]; 0.5% aqueous solution): 5.90 | pH (aq. 0.5%) ([3]; Table 3, supplier API): 5.90 | solubility ([7]; ethanol, organic solvent or mixture, EtOH, read-out: Solubility, EtOH): 80 mg/mL | solubility ([7]; isopropanol, organic solvent or mixture, IPA, read-out: Solubility, IPA): 10 mg/mL | solubility ([7]; water, read-out: Solubility, Water): 270 mg/mL | % Assay ([8]; 40° C./75% RH, 14-Days): 98.5% | % Impurities 3-CBZ ([8]; 40° C./75% RH, 14-Days): 0.019% | % Impurities 20U78/dilu ([8]; 40° C./75% RH, 14-Days): 0.038% | % Impurities 852U77 ([8]; 40° C./75% RH, 14-Days): 0.010% | % Impurities Total unknown ([8]; 40° C./75% RH, 14-Days): 0.038% | Total (%) impurities ([8]; 40° C./75% RH, 14-Days): 0.11% | % Assay ([8]; 40° C./75% RH, 24 Days): 98.5% | % Impurities 3-CBZ ([8]; 40° C./75% RH, 24 Days): 0.082% | % Impurities 20U78/dilu ([8]; 40° C./75% RH, 24 Days): 0.040% | % Impurities 827U76 ([8]; 40° C./75% RH, 24 Days): 0.102% | % Impurities 852U77 ([8]; 40° C./75% RH, 24 Days): 0.023% | % Impurities Total unknown ([8]; 40° C./75% RH, 24 Days): 0.049% | Total (%) impurities ([8]; 40° C./75% RH, 24 Days): 0.30% | % Assay ([8]; 40° C./75% RH, Initial): 100.4% | % Impurities 3-CBZ ([8]; 40° C./75% RH, Initial): 0.002% | % Impurities 20U78/dilu ([8]; 40° C./75% RH, Initial): 0.043% | % Impurities 852U77 ([8]; 40° C./75% RH, Initial): 0.003% | % Impurities Total unknown ([8]; 40° C./75% RH, Initial): 0.044% | Total (%) impurities ([8]; 40° C./75% RH, Initial): 0.09% | % Assay [8, 12]: 96.3% | % Impurities 3-CBZ [8, 12]: 0.110% | % Impurities 20U78/dilu [8, 12]: 0.047% | % Impurities 827U76 [8, 12]: 0.045% | % Impurities 852U77 [8, 12]: 0.047% | % Impurities Total unknown [8, 12]: 0.187% | Total (%) impurities [8, 12]: 0.44% | % Assay [8, 13]: 96.5% | % Impurities 3-CBZ [8, 13]: 0.278% | % Impurities 20U78/dilu [8, 13]: 0.057% | % Impurities 827U76 [8, 13]: 0.141% | % Impurities 852U77 [8, 13]: 0.124% | % Impurities Total unknown [8, 13]: 0.137% | Total (%) impurities [8, 13]: 0.74% | % Assay [8, 14]: 99.4% | % Impurities 3-CBZ [8, 14]: 0.003% | % Impurities 20U78/dilu [8, 14]: 0.040% | % Impurities Total unknown [8, 14]: 0.053% | Total (%) impurities [8, 14]: 0.10% | % Assay [8, 15]: 99.1% | % Impurities 3-CBZ [8, 15]: 0.002% | % Impurities 20U78/dilu [8, 15]: 0.04% | % Impurities Total unknown [8, 15]: 0.165% | Total (%) impurities [8, 15]: 0.21% | Order of stability (assay) with IPA & EtOH ([4]; DS and excipients spiked with IPA & EtOH, 32 days, closed vials, 40° C.): HCl>HBr>tosylate>maleate>fumarate | Order of stability (assay) with water ([4]; DS and excipients spiked with water, 32 days, closed vials, 40° C.): tosylate>maleate>HCl>HBr>fumarate | Content of impurity 3-CBZ, order of salts [4, 10]: maleate > HBr > HCl > Fumarate | Content of impurity 852U77, order of salts [4, 10]: fumarate > HBr ≈ HCl ≈ maleate ≈ tosylate | Total imp., order of salts [4, 10]: fumarate > maleate > HBr > HCl > tosylate | Content of impurity 3-CBZ, order of salts [4, 11]: HCl > HBr ≈ maleate ≈ fumarate | Content of impurity 852U77, order of salts [4, 11]: fumarate > HBr > maleate > HCl | Total imp., order of salts [4, 11]: fumarate > HBr > HCl > tosylate > maleate | Order of stability (assay, % potency) ([4]; salt plus excipients, 20 days, closed vial, 40° C./75% RH): HBr>HCl=tosylate>fumarate>maleate

Bupropion tosylate
TGA: residue at 400° C. [1]: 10.3% | TGA: weight lost between room temperature and 100° C. [1]: 1.3% | KF (moisture content), Original (Initial APIs) [2]: 1.71% | KF (moisture content), Original (Initial APIs) ([2]; listed as Bup-Tosylate): 1.71* % | KF, After recrystallization (R&D), Tested after 2 Months ([2]; re-crystallized salt, 2 months): 0.18% | KF, After recrystallization (R&D), Tested after 1 day ([2]; re-crystallized salt): 0.23% | KF, After recrystallization (R&D), Tested after 1 day ([2]; re-crystallized salt, listed as Bup-Tosylate): 023% | pH (aq. 0.5%), Original (Initial APIs) ([3]; 0.5% aqueous solution): 5.56 | pH (aq. 0.5%), After recrystallization (R&D), Tested after 1 day ([3]; re-crystallized salt, 0.5% aqueous solution): 5.88 | Content of impurity 852U77, order of salts [4, 10]: fumarate > HBr ≈ HCl ≈ maleate ≈ tosylate | Total imp., order of salts [4, 10]: fumarate > maleate > HBr > HCl > tosylate | Total imp., order of salts [4, 11]: fumarate > HBr > HCl > tosylate > maleate

Br.CC(NC(C)(C)C)C(=O)c1cccc(Cl)c1 (stereo not drawn) [Form III, bupropion hydrobromide]
Stability of the polymorphic form (words) ([9]; listed as form III): not as stable as forms I and II | PXRD profile / crystalline form after storage (words) ([9]; listed as bupropion HBr form III): the majority of the product changed to form II | PXRD profile / crystalline form after storage (words) ([9]; listed as form III): conversion to form II

Br.CC(NC(C)(C)C)C(=O)c1cccc(Cl)c1 (stereo not drawn) [Form II, bupropion hydrobromide]
Stability of the polymorphic form (words) ([9]; listed as form II): quite stable | PXRD profile / crystalline form after storage (words) ([9]; listed as bupropion HBr form II): still in form II | PXRD profile / crystalline form after storage (words) ([9]; listed as form II): no change in the PXRD profile

Br.CC(NC(C)(C)C)C(=O)c1cccc(Cl)c1 (stereo not drawn) [Form I, bupropion hydrobromide]
Stability of the polymorphic form (words) ([9]; listed as form I): quite stable | PXRD profile after storage ([9]; accelerated (40° C./75% RH) and shelf life conditions, 3 months and 6 months): gave the same results
